Results taken from the supplement of paper PMC10307832.

Key:
Test in all cases: relative viability (nuclei count vs DMSO), 5 days (fraction); higher = more cells survive
[1] = compound: CS(=O)(=O)N1CCN(Cc2cc3nc(-c4cccc5[nH]ncc45)nc(N4CCOCC4)c3s2)CC1 [Pictilisib] + O=C(c1cc(Cc2n[nH]c(=O)c3ccccc23)ccc1F)N1CCN(C(=O)C2CC2)CC1 [Olaparib] (partner 8 µM)
Outline: (§1)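 Relative viability was taken as the ratio of nuclei in treated wells to nuclei in vehicle wells. Lung cancer cell lines in 1536-well plates received compounds by pin tool one day after seeding, either one drug alone or a fixed anchor-drug dose plus five library-drug doses (not always all listed) in √10 steps. Nuclei were counted on 4× images after 5 days of treatment, and values are medians of duplicate plates.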

[2] = compound: NC1(c2ccc(-c3nc4ccn5c(=O)[nH]nc5c4cc3-c3ccccc3)cc2)CCC1 [MK-2206] + Cc1nc(Nc2ncc(C(=O)Nc3c(C)cccc3Cl)s2)cc(N2CCN(CCO)CC2)n1 [Dasatinib] (partner 0.075 µM)
Outline: as §1

[3] = compound: CS(=O)(=O)N1CCN(Cc2cc3nc(-c4cccc5[nH]ncc45)nc(N4CCOCC4)c3s2)CC1 [Pictilisib] + Cc1cc(Nc2cc(N3CCN(C)CC3)nc(Sc3ccc(NC(=O)C4CC4)cc3)n2)n[nH]1 [Tozasertib] (partner 0.1 µM)
Outline: as §1

[4] = compound: NC1(c2ccc(-c3nc4ccn5c(=O)[nH]nc5c4cc3-c3ccccc3)cc2)CCC1 [MK-2206] + Cc1nc(NC(=O)N2CCC[C@H]2C(N)=O)sc1-c1ccnc(C(C)(C)C(F)(F)F)c1 [Alpelisib] (partner 2 µM)
Outline: as §1

[5] = compound: NC1(c2ccc(-c3nc4ccn5c(=O)[nH]nc5c4cc3-c3ccccc3)cc2)CCC1 [MK-2206] + CCNC(=O)c1noc(-c2cc(C(C)C)c(O)cc2O)c1-c1ccc(CN2CCOCC2)cc1 [Luminespib] (partner 0.01 µM)
Outline: as §1

Cell Line | relative viability ([1]; first compound 0.02 µM) | relative viability ([1]; first compound 0.06325 µM) | relative viability ([1]; first compound 0.6325 µM) | relative viability ([1]; first compound 2 µM) | relative viability ([2]; first compound 0.01 µM) | relative viability ([2]; first compound 0.03162 µM) | relative viability ([2]; first compound 0.3162 µM) | relative viability ([2]; first compound 1 µM) | relative viability ([3]; first compound 0.02 µM) | relative viability ([3]; first compound 0.06325 µM) | relative viability ([3]; first compound 0.6325 µM) | relative viability ([3]; first compound 2 µM) | relative viability ([4]; first compound 0.01 µM) | relative viability ([4]; first compound 0.03162 µM) | relative viability ([4]; first compound 0.3162 µM) | relative viability ([4]; first compound 1 µM) | relative viability ([5]; first compound 0.01 µM) | relative viability ([5]; first compound 0.03162 µM) | relative viability ([5]; first compound 0.3162 µM) | relative viability ([5]; first compound 1 µM)
NCI-H358 | 0.627 | 0.729 | 0.479 | 0.271 | 0.169 | 0.167 | 0.15 | 0.147 | 0.0959 | 0.104 | 0.103 | 0.0838 | 0.9 | 0.837 | 0.65 | 0.563 | 0.0868 | 0.829 | 0.234 | 0.318
NCI-H1915 | 0.257 | 0.277 | 0.28 | 0.225 | 0.348 | 0.329 | 0.348 | 0.271 | 0.433 | 0.432 | 0.405 | 0.308 | 1.05 | 1.1 | 1.04 | 1.08 | 0.86 | 0.853 | 0.787 | 0.72
201T | 0.844 | 0.815 | 0.811 | 0.604 | 0.623 | 0.581 | 0.553 | 0.525 | 0.99 | 0.963 | 0.82 | 0.556 | 0.97 | 1.05 | 0.958 | 0.958 | 1.01 | 1.05 | 1.09 | 1.03
NCI-H1437 | 0.635 | 0.67 | 0.71 | 0.546 | 0.425 | 0.424 | 0.412 | 0.398 | 0.383 | 0.41 | 0.324 | 0.242 | 0.983 | 0.979 | 0.764 | 0.83 | 1.13 | 1.13 | 0.855 | 1.27
A-427 | 0.721 | 0.712 | 0.71 | 0.552 | 0.698 | 0.735 | 0.698 | 0.596 | 0.202 | 0.187 | 0.19 | 0.145 | 1.12 | 1.12 | 1.06 | 1.08 | 0.882 | 0.947 | 0.975 | 0.901
BEN | 1.03 | 1.11 | 1.02 | 0.978 | 0.265 | 0.332 | 0.321 | 0.362 | 0.377 | 0.425 | 0.448 | 0.409 | 0.998 | 1.11 | 1.08 | 1.1 | 0.404 | 0.484 | 0.274 | 0.495
NCI-H2347 | 0.639 | 0.626 | 0.474 | 0.406 | 0.381 | 0.315 | 0.281 | 0.254 | 0.512 | 0.517 | 0.462 | 0.285 | 0.967 | 1.11 | 1.11 | 0.973 | 0.46 | 0.399 | 0.426 | 0.721
LCLC-103H | 0.722 | 0.851 | 0.701 | 0.475 | 0.459 | 0.497 | 0.461 | 0.355 | 0.636 | 0.456 | 0.339 | 0.26 | 1.02 | 0.977 | 0.933 | 0.826 | 0.983 | 1.06 | 0.975 | 0.89
NCI-H650 | 0.372 | 0.37 | 0.44 | 0.348 | 0.448 | 0.442 | 0.453 | 0.326 | 0.733 | 0.76 | 0.66 | 0.478 | 1.09 | 1.15 | 1.11 | 0.983 | 0.747 | 0.86 | 0.897 | 0.788
NCI-H1975 | 0.764 | 0.818 | 0.523 | 0.248 | 0.4 | 0.346 | 0.292 | 0.341 | 0.821 | 0.691 | 0.361 | 0.107 | 0.657 | 0.551 | 0.509 | 0.487 | 0.126 | 0.199 | 0.204 | 0.144
NCI-H2126 | 0.911 | 0.894 | 0.713 | 0.496 | 0.686 | 0.625 | 0.5 | 0.476 | 0.826 | 0.807 | 0.73 | 0.517 | 0.719 | 0.707 | 0.678 | 0.621 | 0.9 | 0.877 | 0.856 | 0.752
NCI-H2087 | 0.537 | 0.477 | 0.493 | 0.345 | 0.71 | 0.962 | 0.918 | 0.775 | 0.232 | 0.228 | 0.168 | 0.187 | 1.17 | 1.03 | 1.12 | 1.1 | 0.158 | 0.155 | 0.187 | 0.128
